What all share (type): functional
The subject of assay [1] is Pseudomonas aeruginosa. Put plainly: Antibacterial activity against Pseudomonas aeruginosa NCIM-2036 after 24 hr by broth dilution method. The settings on record: NCIM-2036, 24 h.
Assay [2] relates to Proteus vulgaris. Kind of assay: Antibacterial activity against Proteus vulgaris NCIM-2027 after 24 hr by agar diffusion assay. A general note: In agar diffusion tests the substance spreads into inoculated agar from a disc or well.
The subject of assay [3] is Pseudomonas aeruginosa. Kind of assay: Antibacterial activity against Pseudomonas aeruginosa NCIM-2036 after 24 hr by agar diffusion assay.
Assay [4] deals with Klebsiella aerogenes. Kind of assay: Antibacterial activity against Enterobacter aerogenes NCIM 2036 after 24 hr by broth dilution method. The settings on record: NCIM-2036, 24 h.
In assay [5] the test system is Bacillus subtilis. Kind of assay: Antibacterial activity against Bacillus subtilis NCIM-2063 after 24 hr by agar diffusion assay.
Assay [6] has as its system Klebsiella aerogenes. Put plainly: Antibacterial activity against Enterobacter aerogenes NCIM 2036 after 24 hr by agar diffusion assay.
Assay [7] relates to Alcaligenes faecalis. Put plainly: Antibacterial activity against Alcaligenes faecalis NCIM-2262 after 24 hr by broth dilution method. The settings on record: NCIM-2262, 24 h. A general note: In broth dilution the organism is exposed to a series of concentrations in liquid medium.
In assay [8] the test system is Alcaligenes faecalis. Put plainly: Antibacterial activity against Alcaligenes faecalis NCIM-2262 after 24 hr by agar diffusion assay.
In assay [9] the test system is Bacillus subtilis. Kind of assay: Antibacterial activity against Bacillus subtilis NCIM-2063 after 24 hr by broth dilution method. The following applies: NCIM-2063, 24 h.
The subject of assay [10] is Proteus vulgaris. Put plainly: Antibacterial activity against Proteus vulgaris NCIM-2027 after 24 hr by broth dilution method. The settings on record: NCIM-2027, 24 h.
In assay [11] the test system is Bacillus cereus. Put plainly: Antibacterial activity against Bacillus cereus NCIM-2155 after 24 hr by agar diffusion assay.
Assay [12] concerns Bacillus cereus. Kind of assay: Antibacterial activity against Bacillus cereus NCIM-2155 after 24 hr by broth dilution method. The settings on record: NCIM-2155, 24 h.
Assay [13] has as its system Escherichia coli. Put plainly: Antibacterial activity against Escherichia coli NCIM-2065 after 24 hr by broth dilution method. The settings on record: NCIM-2065, 24 h.
Assay [14] concerns Staphylococcus aureus. Kind of assay: Antibacterial activity against Staphylococcus aureus NCIM-2079 after 24 hr by agar diffusion assay.
Assay [15] relates to Escherichia coli. Put plainly: Antibacterial activity against Escherichia coli NCIM-2065 after 24 hr by agar diffusion assay.
Assay [16] deals with Staphylococcus aureus. Kind of assay: Antibacterial activity against Staphylococcus aureus NCIM-2079 after 24 hr by broth dilution method. The following applies: NCIM-2079, 24 h.

≈ marks a conversion by molar mass, not a printed value.

Broadly, the MIC is the smallest concentration in the dilution series that meets the test's criterion for growth inhibition.

Consider `CC1(C)CC[C@]2(C(=O)O)[C@H](O)[C@H](O)[C@]3(C)C(=CC[C@@H]4[C@@]5(C)CC[C@H](O)C(C)(C)[C@@H]5CC[C@]43C)[C@@H]2C1` [ENTAGENIC ACID], for which the minimal inhibitory concentration (MIC) in assay [1] is 150 µg/mL (≈ 307 µM); in assay [4], 300 µg/mL (≈ 614 µM); in [7], 150 µg/mL (≈ 307 µM); in assay [9], 100 µg/mL (≈ 205 µM); in [10], 250 µg/mL (≈ 512 µM); in assay [12], 100 µg/mL (≈ 205 µM). Moreover, the values for the MIC in assay [13] and in assay [16] were 250 µg/mL (≈ 512 µM) and 100 µg/mL (≈ 205 µM), respectively. Further, the “diameter of the inhibition zone (DIZ)” value in [2] turned out to be 13.5 mm; in [3], 15 mm; in assay [5], 18 mm; in [6], 6.5 mm; in assay [8], 15 mm; in assay [11], 22 mm. Further, the figures for the “diameter of the inhibition zone (DIZ)” value in assay [14] and in assay [15] were 17.5 mm and 13 mm, respectively.

With `CN[C@@H]1[C@H](O[C@H]2[C@H](O[C@H]3[C@H](O)[C@@H](O)[C@H](N=C(N)N)[C@@H](O)[C@@H]3N=C(N)N)O[C@@H](C)[C@]2(O)C=O)O[C@@H](CO)[C@H](O)[C@H]1O` [STREPTOMYCIN], the “diameter of the inhibition zone (DIZ)” value in assay [2] is 24.36 mm; in [3] it was 21.15 mm; in assay [5], 22.33 mm; in assay [6], 19.38 mm; in [8], 22.37 mm; in assay [11], 20.53 mm. For the same compound, the “diameter of the inhibition zone (DIZ)” value in [14] is reported as 19.41 mm; in assay [15], 18.42 mm.
